According to PubChem BioAssay (NCI):
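Assay format: 96-well plates, 48-hour exposure. GI50: concentration for 50% inhibition of growth. TGI denotes the concentration required for complete inhibition of growth.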

Assays:
Assay in all cases: NCI anticancer screen, dose series, 48 h
786-0 renal = test system: 786-0 renal
A498 renal = test system: A498 renal
A549 NSCLC = test system: A549 NSCLC
CAKI-1 renal = test system: CAKI-1 renal
CCRF-CEM leukemia = test system: CCRF-CEM leukemia
COLO 205 colon = test system: COLO 205 colon
DU-145 prostate = test system: DU-145 prostate
EKVX NSCLC = test system: EKVX NSCLC
HCT-116 colon = test system: HCT-116 colon
HL-60(TB) leukemia = test system: HL-60(TB) leukemia
HOP-62 NSCLC = test system: HOP-62 NSCLC
HS 578T breast = test system: HS 578T breast
IGROV1 ovarian = test system: IGROV1 ovarian
K-562 leukemia = test system: K-562 leukemia
KM12 colon = test system: KM12 colon
LOX IMVI melanoma = test system: LOX IMVI melanoma
M14 melanoma = test system: M14 melanoma
MALME-3M melanoma = test system: MALME-3M melanoma
MCF7 breast = test system: MCF7 breast
MDA-MB-231 breast = test system: MDA-MB-231 breast
MDA-MB-435 = test system: MDA-MB-435
MOLT-4 leukemia = test system: MOLT-4 leukemia
NCI-H226 lung = test system: NCI-H226 lung
NCI-H23 lung = test system: NCI-H23 lung
NCI-H460 lung = test system: NCI-H460 lung
NCI-H522 lung = test system: NCI-H522 lung
NCI/ADR-RES ovarian = test system: NCI/ADR-RES ovarian
OVCAR-3 ovarian = test system: OVCAR-3 ovarian
OVCAR-4 ovarian = test system: OVCAR-4 ovarian
OVCAR-8 ovarian = test system: OVCAR-8 ovarian
PC-3 prostate = test system: PC-3 prostate
RPMI-8226 leukemia = test system: RPMI-8226 leukemia
RXF 393 renal = test system: RXF 393 renal
SF-268 CNS = test system: SF-268 CNS
SF-295 CNS = test system: SF-295 CNS
SF-539 CNS = test system: SF-539 CNS
SK-MEL-2 melanoma = test system: SK-MEL-2 melanoma
SK-MEL-28 melanoma = test system: SK-MEL-28 melanoma
SK-MEL-5 melanoma = test system: SK-MEL-5 melanoma
SK-OV-3 ovarian = test system: SK-OV-3 ovarian
SN12C renal = test system: SN12C renal
SNB-19 CNS = test system: SNB-19 CNS
SW-620 colon = test system: SW-620 colon
T-47D breast = test system: T-47D breast
TK-10 renal = test system: TK-10 renal
U251 CNS = test system: U251 CNS
UACC-257 melanoma = test system: UACC-257 melanoma
UACC-62 melanoma = test system: UACC-62 melanoma
UO-31 renal = test system: UO-31 renal
ACHN renal = test system: ACHN renal
BT-549 breast = test system: BT-549 breast
HCC-2998 colon = test system: HCC-2998 colon
HCT-15 colon = test system: HCT-15 colon
HOP-92 NSCLC = test system: HOP-92 NSCLC
HT29 colon = test system: HT29 colon
OVCAR-5 ovarian = test system: OVCAR-5 ovarian
SNB-75 CNS = test system: SNB-75 CNS
SR leukemia = test system: SR leukemia

## COc1ccc(Nc2cnc3cc(N)cc(N)c3n2)cc1
786-0 renal
  GI50: 18.2 µM
  TGI: 42.9 µM
A498 renal
  GI50: 16.9 µM
  TGI: 59.1 µM
A549 NSCLC
  GI50: 26.8 µM
  TGI: > 100 µM
CAKI-1 renal
  GI50: 23 µM
  TGI: 64.9 µM
CCRF-CEM leukemia
  GI50: 14.8 µM
  TGI: 89.7 µM
COLO 205 colon
  GI50: 30.5 µM
  TGI: > 100 µM
DU-145 prostate
  GI50: 30.4 µM
  TGI: > 100 µM
EKVX NSCLC
  GI50: 22 µM
  TGI: 42.6 µM
HCT-116 colon
  GI50: 23.8 µM
  TGI: 54.1 µM
HL-60(TB) leukemia
  GI50: 5.49 µM
  TGI: 73.7 µM
HOP-62 NSCLC
  GI50: 24.4 µM
  TGI: 51.9 µM
HS 578T breast
  GI50: 21.9 µM
  TGI: 63.3 µM
IGROV1 ovarian
  GI50: 17.6 µM
  TGI: 37.7 µM
K-562 leukemia
  GI50: 5.69 µM
  TGI: > 100 µM
KM12 colon
  GI50: 18.4 µM
  TGI: 36.2 µM
LOX IMVI melanoma
  GI50: 18.8 µM
  TGI: 40.5 µM
M14 melanoma
  GI50: 14.5 µM
  TGI: 28 µM
MALME-3M melanoma
  GI50: 15.2 µM
  TGI: 39.4 µM
MCF7 breast
  GI50: 18.4 µM
  TGI: 40.9 µM
MDA-MB-231 breast
  GI50: 10.5 µM
  TGI: 26.2 µM
MDA-MB-435
  GI50: 16.7 µM
  TGI: 33.8 µM
MOLT-4 leukemia
  GI50: 12.5 µM
  TGI: > 100 µM
NCI-H226 lung
  GI50: 17.2 µM
  TGI: 45.8 µM
NCI-H23 lung
  GI50: 2.02 µM
  TGI: 7.65 µM
NCI-H460 lung
  GI50: 21.9 µM
  TGI: 53.5 µM
NCI-H522 lung
  GI50: 16.6 µM
  TGI: 43.6 µM
NCI/ADR-RES ovarian
  GI50: 16.4 µM
  TGI: 35 µM
OVCAR-3 ovarian
  GI50: 11.4 µM
  TGI: 27.3 µM
OVCAR-4 ovarian
  GI50: 21.4 µM
  TGI: 48.5 µM
OVCAR-8 ovarian
  GI50: 14.1 µM
  TGI: 29.4 µM
PC-3 prostate
  GI50: 14.7 µM
  TGI: 27.9 µM
RPMI-8226 leukemia
  GI50: 4.53 µM
  TGI: 25.7 µM
RXF 393 renal
  GI50: 17.6 µM
  TGI: 39.6 µM
SF-268 CNS
  GI50: 17.7 µM
  TGI: 39.8 µM
SF-295 CNS
  GI50: 22.3 µM
  TGI: 48.7 µM
SF-539 CNS
  GI50: 17.3 µM
  TGI: 36.6 µM
SK-MEL-2 melanoma
  GI50: 14.4 µM
  TGI: 32 µM
SK-MEL-28 melanoma
  GI50: 21.2 µM
  TGI: 44.8 µM
SK-MEL-5 melanoma
  GI50: 16 µM
  TGI: 29.8 µM
SK-OV-3 ovarian
  GI50: 28.2 µM
  TGI: 80.9 µM
SN12C renal
  GI50: 15.6 µM
  TGI: 37 µM
SNB-19 CNS
  GI50: 32.8 µM
  TGI: > 100 µM
SW-620 colon
  GI50: 21.8 µM
  TGI: 52.8 µM
T-47D breast
  GI50: 27 µM
  TGI: 75.5 µM
TK-10 renal
  GI50: 23.7 µM
  TGI: 76.2 µM
U251 CNS
  GI50: 14.9 µM
  TGI: 35.5 µM
UACC-257 melanoma
  GI50: 19.4 µM
  TGI: 45.9 µM
UACC-62 melanoma
  GI50: 14.6 µM
  TGI: 28.8 µM
UO-31 renal
  GI50: 25.7 µM
  TGI: 98.5 µM

## COCCOC1=C(Cl)C(=O)c2ccccc2C1=O
786-0 renal
  GI50: 6.26 µM
  TGI: 18.8 µM
A498 renal
  GI50: 4.35 µM
  TGI: 18.2 µM
A549 NSCLC
  GI50: 4.33 µM
  TGI: 21.8 µM
ACHN renal
  GI50: 1.88 µM
  TGI: 3.59 µM
BT-549 breast
  GI50: 3.2 µM
  TGI: 10.6 µM
CAKI-1 renal
  GI50: 2.83 µM
  TGI: 9.83 µM
COLO 205 colon
  GI50: 3.63 µM
  TGI: 12.2 µM
DU-145 prostate
  GI50: 3.1 µM
  TGI: 10.7 µM
EKVX NSCLC
  GI50: 3.51 µM
  TGI: 15.8 µM
HCC-2998 colon
  GI50: 4.23 µM
  TGI: 15 µM
HCT-116 colon
  GI50: 1.82 µM
  TGI: 3.58 µM
HCT-15 colon
  GI50: 2.88 µM
  TGI: 9.65 µM
HL-60(TB) leukemia
  GI50: 1.58 µM
  TGI: 4.87 µM
HOP-62 NSCLC
  GI50: 3.92 µM
  TGI: 14.8 µM
HOP-92 NSCLC
  GI50: 1.41 µM
  TGI: 2.93 µM
HS 578T breast
  GI50: 2.94 µM
  TGI: 12.7 µM
HT29 colon
  GI50: 7.06 µM
  TGI: 25.5 µM
IGROV1 ovarian
  GI50: 2.62 µM
  TGI: 6.44 µM
KM12 colon
  GI50: 2.11 µM
  TGI: 4.23 µM
LOX IMVI melanoma
  GI50: 1.75 µM
  TGI: 3.31 µM
MALME-3M melanoma
  GI50: 3.08 µM
  TGI: 13.4 µM
MCF7 breast
  GI50: 3.06 µM
  TGI: 14.7 µM
MDA-MB-231 breast
  GI50: 2.81 µM
  TGI: 11.7 µM
MDA-MB-435
  GI50: 3.08 µM
  TGI: 10.4 µM
MOLT-4 leukemia
  GI50: 1.81 µM
  TGI: 42 µM
NCI-H226 lung
  GI50: 4.18 µM
  TGI: 15.8 µM
NCI-H23 lung
  GI50: 3.24 µM
  TGI: 13.5 µM
NCI-H460 lung
  GI50: 3.34 µM
  TGI: 17.3 µM
NCI-H522 lung
  GI50: 1.47 µM
  TGI: 2.9 µM
NCI/ADR-RES ovarian
  GI50: 2.39 µM
  TGI: 6.7 µM
OVCAR-3 ovarian
  GI50: 1.66 µM
  TGI: 3.06 µM
OVCAR-4 ovarian
  GI50: 2.17 µM
  TGI: 4.68 µM
OVCAR-5 ovarian
  GI50: 3.22 µM
  TGI: 9.52 µM
OVCAR-8 ovarian
  GI50: 3.11 µM
  TGI: 10.7 µM
PC-3 prostate
  GI50: 2.18 µM
  TGI: 5.55 µM
RPMI-8226 leukemia
  GI50: 2.31 µM
  TGI: 6.75 µM
RXF 393 renal
  GI50: 3.31 µM
  TGI: 10.2 µM
SF-268 CNS
  GI50: 2.24 µM
  TGI: 9.32 µM
SF-295 CNS
  GI50: 4.42 µM
  TGI: 15.9 µM
SF-539 CNS
  GI50: 2.52 µM
  TGI: 5.79 µM
SK-MEL-2 melanoma
  GI50: 2.71 µM
  TGI: 9.35 µM
SK-MEL-28 melanoma
  GI50: 3.22 µM
  TGI: 10.9 µM
SK-MEL-5 melanoma
  GI50: 1.82 µM
  TGI: 3.51 µM
SK-OV-3 ovarian
  GI50: 4.55 µM
  TGI: 16.8 µM
SN12C renal
  GI50: 3.91 µM
  TGI: 16.5 µM
SNB-19 CNS
  GI50: 4.55 µM
  TGI: 16.8 µM
SNB-75 CNS
  GI50: 2.75 µM
  TGI: 10.1 µM
SR leukemia
  GI50: 3.17 µM
  TGI: 9.48 µM
SW-620 colon
  GI50: 1.7 µM
  TGI: 3.32 µM
TK-10 renal
  GI50: 2.83 µM
  TGI: 10.8 µM
U251 CNS
  GI50: 3.14 µM
  TGI: 10 µM
UACC-257 melanoma
  GI50: 2 µM
  TGI: 4.36 µM
UACC-62 melanoma
  GI50: 1.89 µM
  TGI: 5.1 µM
UO-31 renal
  GI50: 3.07 µM
  TGI: 16 µM
